Test results as given in ChEMBL document CHEMBL3232968, “Potent airway smooth muscle relaxant effect of cynatratoside B, a steroidal glycoside isolated from Cynanchum stauntonii” (J Nat Prod, 2014).

Assays:
Trachea [1] = experiment: Inhibition of carbachol-induced contraction of Sprague-Dawley rat tracheal rings after 30 mins by isometric tension technique; assay type: functional, tissue-based; conditions: 0.5 h
Trachea [2] = experiment: Inhibition of acetylcholine-induced contraction of Sprague-Dawley rat tracheal rings after 30 mins by isometric tension technique; assay type: functional, tissue-based

SMILES | EC50 (Trachea [1]) | inhibition (Trachea [2]) | EC50 (Trachea [2]; 0.5 h)
C[C@@H]1O[C@@H](O[C@H]2[C@H](O[C@H]3CC[C@@]4(C)[C@@H](CC[C@]5(C)[C@@H]4CC=C4[C@@H]6CC(C)(C)CC[C@]6(C(=O)O)CC[C@]45C)[C@]3(C)CO)OC[C@H](O)[C@@H]2O)[C@H](O)[C@H](O)[C@H]1O [ALPHA-HEDERIN] | 1000 nM |  | 
CC(C)NC[C@H](O)c1ccc(O)c(O)c1 [LEVISOPRENALINE] | 130 nM |  | 
CO[C@@H]1C[C@H](O[C@H]2[C@@H](O)C[C@H](O[C@@H]3[C@@H](C)O[C@@H](O[C@H]4CC[C@@]5(C)C(=CC[C@@H]6C(=O)O[C@@H]7CO[C@]8(C)OC=C(CC[C@@H]65)[C@H]78)C4)C[C@H]3OC)O[C@@H]2C)O[C@@H](C)[C@@H]1O | 480 nM | Dose-dependent effect | 850 nM
